Experiment [1] concerns L. sp. Branson. The experiment can be described thus: Cryopreservation success rate after dormancy induction in sugar-supplemented medium. It is filed as in vivo. How it is done: (§1) Lemna minor duckweed plants were cultured on Schenk and Hildebrandt media with 20 mg/ml sucrose at an aerial temperature of between 21° C. and 30° C. and light levels ranging from 200 μM·M^−2·sec^−1 to 450 μM·M^−2·sec^−1 for 1 day up to 1 year. Three frond colonies (each frond colony comprised one or more daughter fronds attached to the mother frond) were aseptically transferred into a 2.0-mL cryovial containing a 900 μL solution of Schenk and Hildebrandt media, […] step. The frond colonies were incubated in this sugar solution for 21-30 days. Each 24-hour photoperiod was comprised of fluctuations in temperature and light levels. Specifically, the daytime hours consisted of culturing the duckweed frond colony at an aerial temperature of 10° C. with a light level of about 25 μM·M^−2·sec^−1 to about 50 μM·M^−2·sec^−1 for a duration of 3 hours, followed by an aerial temperature of 15° C. at a light level of about 25 μM·M^−2·sec^−1 to about 75 μM·M^−2·sec^−1 for a duration of 6 hours, and an aerial temperature of 10° C. with a light level of about 25 μM^−2·sec^−1 to about 50 μM·M^−2·sec^−1 for a duration of 3 hours. During the nighttime hours of the 24-hour photoperiod, the duckweed frond colonies were cultured at an aerial temperature of 4° C. in the absence of light for a duration of 12 hours.
(§2) The duckweed frond colonies were dehydrated in a laminar flow hood in 900 μL of a cryoprotective solution, comprising 1.92 M DMSO, […], 3.26 M glycerol, and 0.4 M sucrose at pH 5.8. The cryovials were incubated in this solution at 4° C. for 30 minutes to 2 hours in the absence of light. Following the incubation, the cryoprotective solution was removed and replaced with 900 μL of fresh cryoprotective solution.
(§3) The duckweed frond colonies were frozen in a slow rate freezer according to the following freezing protocol. The cryovials containing the duckweed frond colonies were held at 4° C. and the temperature was lowered to −4° C. at 1° C. per minute, to −40° C. at 25° C. per minute, and then raised to −12° C. at 10° C. per minute. The temperature was again lowered to −40° C. at 1° C. per minute, to −90° C. at 10° C. per minute, and then lowered to −150° C. at 10° C. per minute. Once frozen, the vials containing the frond colonies were transferred to the vapor phase of liquid nitrogen for storage.
(§4) After up to 17 months in storage, the frozen duckweed frond colonies were thawed and recovered as follows. The vials containing the frozen duckweed frond colonies were transferred from the liquid nitrogen storage tank to a laminar flow hood and were thawed at room temperature for approximately ten minutes. The cryoprotective solution was removed and replaced with 900 μL of Schenk and Hildebrandt medium, supplemented with 1.2 M sucrose, followed by a ten minute incubation at room temperature. The 1.2 M sucrose was subsequently diluted by a series of five dilutions whereby 450 μL of the 1.2 M sucrose solution was removed and replaced with 450 μL of Schenk and Hildebrandt medium supplemented with 20 mg/ml sucrose. Following the serial dilutions, the frond colonies were transferred to a petri dish with Schenk and Hildebrandt medium, supplemented with 10 mg/ml sucrose and 1% (weight/volume) agar. The duckweed frond colonies were cultured at an aerial temperature of between 21° C. and 30° C. with light levels ranging from about 20 μM·M^−2·sec^−1 to about 100 μM·M^−2·sec^−1 for 7-14 days prior to calculating the success rate of the cryopreservation procedure.
(§5) The cryopreservation success rate was calculated by the total number of visible daughter fronds (or daughter fronds with viable tissue) to survive the freezing process and successfully reproduce new daughter fronds as a percentage of the total number of visible daughter fronds that were frozen. Viability of tissue or of daughter fronds was assessed by the presence of green tissue and the ability of these fronds or frond tissues to reproduce and generate new daughter fronds. […]

The test system of experiment [2] is IFN61-B2-101 line. Described as above. The experiment is classed as in vivo, Lemna minor. How it is done: as §1, §2, §3, §4, §5
[3] abbreviates: sugars at two concentrations: 90 mg/ml (1X) and 270 mg/ml (3X), listed as Sucrose 1X.
The mark [4] stands for this setting: sugars at two concentrations: 90 mg/ml (1X) and 270 mg/ml (3X), listed as Sucrose 3X.
[5] abbreviates: various concentrations of six sugar combination: total sugar 90 (1X), 216 (2.4X), 342 mg/ml (3.8X), or 20 mg/ml sucrose.

As for `OC[C@H]1O[C@@](CO)(O[C@H]2O[C@H](CO)[C@@H](O)[C@H](O)[C@H]2O)[C@@H](O)[C@@H]1O` [Sucrose, sucrose], the Cryopreservation success rate in experiment [1] (first set of experiments, single sugars 90 mg/ml unless the label says 20 mg/ml, six sugar combo 15 mg/ml each, in Schenk and Hildebrandt media during dormancy induction) is recorded as 100% (23/23); in experiment [1] (first set of experiments, single sugars 90 mg/ml unless the label says 20 mg/ml, six sugar combo 15 mg/ml each, in Schenk and Hildebrandt media during dormancy induction, listed as 20 mg/ml Sucrose), 96% (24/25); in experiment [1] (second set of experiments, single sugars 90 mg/ml unless the label says 20 mg/ml, six sugar combo 15 mg/ml each) it was 87.5% (14/16); in experiment [1] (second set of experiments, single sugars 90 mg/ml unless the label says 20 mg/ml, six sugar combo 15 mg/ml each, listed as 20 mg/ml Sucrose) it was 88.2% (15/17); in experiment [1] (setting [3]), 100% (19/19); in experiment [1] (setting [4]), 0% (0/14). Further, the Cryopreservation success rate is on record as 100% (24/24) in experiment [1] (setting [5]), 89.5% in experiment [2] (setting [3]), 0% in experiment [2] (setting [4]) and 100% in experiment [2] (setting [5]).

For the origin of these results see patent publication US20120190004A1, “METHODS AND COMPOSITIONS FOR THE CRYOPRESERVATION OF DUCKWEED” (Biolex Therapeutics, Inc., priority 2009, published 2012).
